Source: publication PMC9942557, “Bolaamphiphile Analogues of 12-bis-THA Cl2 Are Potent Antimicrobial Therapeutics with Distinct Mechanisms of Action against Bacterial, Mycobacterial, and Fungal Pathogens” (mSphere, 2022)
Where two headings read alike, the source gives them in different places.

Key:
P. aeruginosa NCTC 13437 = assay: Fixed-concentration (0.25× MIC bolalipid) synergy broth microdilution; assay type: cell-based, Pseudomonas aeruginosa; conditions: for MIC: Pseudomonas aeruginosa, NCTC13437, P. aeruginosa NCTC 13437, read-out: MIC of aminoglycoside; for MIC of antibiotic: P. aeruginosa NCTC 13437
A. baumannii AYE = assay: as above; assay type: cell-based; conditions: Acinetobacter baumannii
P. aeruginosa PAO1 = assay: as above; assay type: cell-based, Pseudomonas aeruginosa; conditions: for MIC: Pseudomonas aeruginosa, PAO1, P. aeruginosa PAO1, read-out: MIC of aminoglycoside; for MIC of antibiotic: P. aeruginosa PAO1
E. coli NCTC 12923 = assay: as above; assay type: cell-based; conditions: Escherichia coli, NCTC12923, E. coli NCTC 12923, read-out: MIC of aminoglycoside
A. baumannii ATCC 17978 [1] = assay: as above; assay type: cell-based; conditions: Acinetobacter baumannii, ATCC17978, A. baumannii ATCC 17978, read-out: MIC of aminoglycoside
K. pneumoniae NCTC 13368 = assay: as above; assay type: cell-based, Klebsiella pneumoniae; conditions: for MIC of aminoglycoside: K. pneumoniae NCTC 13368; for MIC: Klebsiella pneumoniae
A. baumannii ATCC 17978 [2] = assay: G. mellonella burn wound infection model; assay type: in vivo, Galleria mellonella; conditions: alone
Text: In addition to the intrahemocoelic infection/therapy models described above, a recently described G. mellonella burn wound model was adopted ([37]). The burn was created using the flat head of a nail, which was heated in a blue Bunsen burner flame until red hot, cooled for 15 s, and superficially applied for 2 s to generate a 2-mm^2 burn. Larvae were then infected with a single colony of A. baumannii ATCC 17978 applied directly to the burn site, or sterile phosphate-buffered saline was applied as a control. Treatment was applied topically 1 h after infection in a volume of 5 μL. Survival was monitored over 96 h.

K. pneumoniae M6 = assay: Fixed-concentration (0.25× MIC bolalipid) synergy broth microdilution; assay type: cell-based; conditions: Klebsiella pneumoniae
EMRSA-15 = assay type: in vivo, Galleria mellonella
[3] = test system: Ac. pleuropneumoniae Shope; assay: Checkerboard synergy assay (BHI, 5% FBS, 0.01% NAD); assay type: cell-based, Actinobacillus pleuropneumoniae
[4] = test system: Ac. pleuropneumoniae 2356; assay: as above; assay type: cell-based, Actinobacillus pleuropneumoniae
[5] = test system: Ac. pleuropneumoniae 3370; assay: as above; assay type: cell-based, Actinobacillus pleuropneumoniae
[6] = test system: Ac. pleuropneumoniae 2331; assay: as above; assay type: cell-based, Actinobacillus pleuropneumoniae
[7] = test system: Pseudomonas aeruginosa RP73; assay: In vitro pharmacodynamic (PD) assay; conditions: P. aeruginosa RP73; combination 2:1 (wt/wt)
Protocol: In vitro PD assays were performed with Pseudomonas aeruginosa RP73 cultured in Roswell Park Memorial Institute 1640 medium (RPMI) supplemented with 5% Mueller-Hinton broth (MHB) ([35]). Bacteria were cultured overnight in 10 mL of RPMI–5% MHB at 37°C and diluted just prior to plate inoculation to an OD600 of 0.002. Stock solutions of colistin or tobramycin were prepared in sterile MilliQ water at a concentration of 200× MIC. Octa-bola was prepared in methanol at 2,000× MIC and diluted in water to 200× MIC. A dilution series was made in the top row of a polypropylene 96-well plate from 200× MIC to 0.2× MIC in a volume of 100 μL, to which 100 μL of the bacterial suspension was added to have a total of 1 × 10^6 log-phase CFU in 200 μL. The first time zero sample was taken <30 s after addition of bacteria to the plate, with further samples taken at appropriate intervals thereafter. […] Fifteen microliters was removed from each well, diluted 1:1,000 in phosphate-buffered saline, and plated onto RPMI–5% MH agar plates. The plates were incubated at 37°C overnight for CFU counting.
CFU data were log10 transformed, and the bacterial net growth rate was determined from the increase or decrease in CFU during the time of exposure to the antibiotics as the coefficient of a linear regression of log10 CFU as a function of time. The intercept of the regression was fixed by forcing the regression lines through the first CFU measurement (0 min) at a given antimicrobial concentration. The pharmacodynamic function according to Regoes et al. ([36]) describes the relationship between bacterial net growth rate (ψ) and the concentration of an antimicrobial (a): ψmax − ([ψmax − ψmin][a/zMIC])^κ/([a/zMIC]^κ − [ψmin/ψmax]). Fitting this function to the net bacterial growth rates in OriginPro 2020 (OriginLab Corporation, Northampton, MA) generates the parameters ψmin and ψmax (minimum and maximum growth rates, respectively), zMIC (the pharmacodynamic MIC), and κ (a measure of the cooperativity). […]

[8] = in the presence of 0.25× MIC Octa-Bola
[9] = in the presence of 0.25× MIC Octa-C6
[10] = in the presence of 0.25× MIC Octa-C10
[11] = No bola, read-out: MIC of aminoglycoside
[12] = in the presence of 0.25× MIC Octa-Bola, read-out: MIC of aminoglycoside
[13] = in the presence of 0.25× MIC Octa-C6, read-out: MIC of aminoglycoside
[14] = in the presence of 0.25× MIC Octa-C10, read-out: MIC of aminoglycoside
[15] = in the presence of 0.25× MIC Octa-C10 (Table S1)
[16] = in the presence of 0.25× MIC Octa-bola (Table S1)

With `CNC(C)C1CCC(N)C(OC2C(N)CC(N)C(OC3OCC(C)(O)C(NC)C3O)C2O)O1` (centres unmarked) [Gentamicin] the MIC (P. aeruginosa NCTC 13437; No bola) was 256 µg/mL, the MIC (P. aeruginosa NCTC 13437; [8]) was 8 µg/mL and the MIC (P. aeruginosa NCTC 13437; [9]) was 8 µg/mL. The MIC (P. aeruginosa NCTC 13437; [10]) was 8 µg/mL, the MIC (A. baumannii AYE; [11]) was 256 µg/mL and the MIC (A. baumannii AYE; [12]) was 0.5 µg/mL. For the same compound, the MIC (A. baumannii AYE; [13]) was 32 µg/mL, the MIC (A. baumannii AYE; [14]) was 4 µg/mL and the MIC (P. aeruginosa PAO1; No bola) was 2 µg/mL. The MIC (P. aeruginosa PAO1; [8]) was 0.5 µg/mL, the MIC (P. aeruginosa PAO1; [9]) was 0.25 µg/mL and the MIC (P. aeruginosa PAO1; [10]) was 0.25 µg/mL. It also gave an MIC (E. coli NCTC 12923; No bola) of 2 µg/mL, an MIC (E. coli NCTC 12923; [8]) of 2 µg/mL and an MIC (E. coli NCTC 12923; [9]) of 2 µg/mL. For the same compound, the MIC (E. coli NCTC 12923; [10]) was 1 µg/mL, the MIC (A. baumannii ATCC 17978 [1]; No bola) was 2 µg/mL and the MIC (A. baumannii ATCC 17978 [1]; [8]) was 0.25 µg/mL. It also gave an MIC (A. baumannii ATCC 17978 [1]; [9]) of 1 µg/mL, an MIC (A. baumannii ATCC 17978 [1]; [10]) of 1 µg/mL and an MIC of aminoglycoside (K. pneumoniae NCTC 13368; [9]) of 16 µg/mL. The MIC of aminoglycoside (K. pneumoniae NCTC 13368; [10]) was 16 µg/mL, the MIC (K. pneumoniae NCTC 13368; NCTC13368, K. pneumoniae NCTC 13368, in the presence of 0.25× MIC Octa-Bola, read-out: MIC of aminoglycoside) was 8 µg/mL and the MIC (K. pneumoniae NCTC 13368; NCTC13368, read-out: MIC of aminoglycoside) was 16 µg/mL. For the same compound, the larvae rescued (A. baumannii ATCC 17978 [2]; 5 mg/kg topical, 96 h) was 76%, the protection (A. baumannii ATCC 17978 [2]; lower doses (2.5 and 1.25 mg/kg)) was “ineffective” and the MIC (K. pneumoniae M6; [11]) was 1 µg/mL. For the same compound, the MIC (K. pneumoniae M6; [12]) was 1 µg/mL, the MIC (K. pneumoniae M6; [13]) was 1 µg/mL and the MIC (K. pneumoniae M6; [14]) was 1 µg/mL.
In the case of `CN[C@H](CC(C)C)C(=O)N[C@H]1C(=O)N[C@@H](CC(N)=O)C(=O)N[C@H]2C(=O)N[C@H]3C(=O)N[C@H](C(=O)N[C@H](C(=O)O)c4cc(O)cc(O)c4-c4cc3ccc4O)[C@H](O)c3ccc(c(Cl)c3)Oc3cc2cc(c3O[C@@H]2O[C@H](CO)[C@@H](O)[C@H](O)[C@H]2O[C@H]2C[C@](C)(N)[C@H](O)[C@H](C)O2)Oc2ccc(cc2Cl)[C@H]1O` [Vancomycin, reference compound], the infected larvae rescued (EMRSA-15; 50 mg/kg, single injection 2 h postinfection) is reported as roughly 80% and the infected larvae rescued (EMRSA-15; a tenth of 50 mg/kg dose) is reported as 45%.
`[H]/N=C(/N)N[C@H]1[C@H](O)[C@@H](O)[C@H](O[C@@H]2O[C@@H](C)[C@](O)(C=O)[C@H]2O[C@@H]2O[C@@H](CO)[C@H](O)[C@@H](O)[C@@H]2NC)[C@@H](N/C(N)=N\[H])[C@@H]1O` [streptomycin, reference compound] was tested, and the “MIC alone Antibiotic” value ([3]; Octa-C10/streptomycin) was 32 to 64 µg/mL, the “MIC alone Antibiotic” value ([4]; Octa-C10/streptomycin) was 64 µg/mL and the “MIC alone Antibiotic” value ([5]; Octa-C10/streptomycin) was 16 to 64 µg/mL. The “MIC alone Antibiotic” value ([6]; Octa-C10/streptomycin) was 32 µg/mL.
With `CCN1CCN(c2cc3c(cc2F)c(=O)c(C(=O)O)cn3C2CC2)CC1` [enrofloxacin, reference compound] the “MIC alone Antibiotic” value ([3]; Octa-C10/enrofloxacin) was 0.125 µg/mL, the “MIC alone Antibiotic” value ([4]; Octa-C10/enrofloxacin) was 0.125 µg/mL and the “MIC alone Antibiotic” value ([5]; Octa-C10/enrofloxacin) was 0.125 µg/mL. For the same compound, the “MIC alone Antibiotic” value ([6]; Octa-C10/enrofloxacin) was 0.125 µg/mL.
For Colistin, the MIC of antibiotic (P. aeruginosa NCTC 13437; No bola (Table S1)) was 0.25 to 0.5 µg/mL, the MIC of antibiotic (P. aeruginosa NCTC 13437; [15]) was 0.125 to 0.25 µg/mL and the MIC of antibiotic (P. aeruginosa NCTC 13437; [16]) was 0.125 µg/mL. For the same compound, the MIC of antibiotic (P. aeruginosa PAO1; No bola (Table S1)) was 0.125 to 0.25 µg/mL, the MIC of antibiotic (P. aeruginosa PAO1; [15]) was 0.06 µg/mL and the MIC of antibiotic (P. aeruginosa PAO1; [16]) was 0.06 µg/mL. For the same compound, the “bactericidal activity (minimum growth rate, ψmin)” value [7] was “weakly bactericidal”.
